ChEMBL document CHEMBL6092192 (J Med Chem, 2024)

How the values were obtained:
SW620/AD300 [1] = experiment: Reversal of paclitaxel resistance in human SW620/AD300 cells assessed as reversal fold by measuring ratio of paclitaxel IC50 to paclitaxel IC50 in presence of test compound incubated for 72 hrs by MTT assay; format: functional
SW620/AD300 [2] = experiment: Cytotoxicity against multidrug resistant human SW620/AD300 cells assessed as survival rate at 4 uM measured after 72 hrs by MTT assay relative to control; format: functional; conditions: read-out: Survival
SW-620 [3] = experiment: Cytotoxicity against human SW620 cells measured after 72 hrs by MTT assay; format: functional, cell-based; conditions: SW-620, 72 h
SW-620 [4] = experiment: Reversal of paclitaxel resistance in human SW620 cells assessed as reversal fold by measuring ratio of paclitaxel IC50 to paclitaxel IC50 in presence of test compound at 4 uM incubated for 72 hrs by MTT assay; format: functional
SW620/AD300 [5] = experiment: Cytotoxicity against multidrug resistant human SW620/AD300 cells measured after 72 hrs by MTT assay; format: functional, cell-based; conditions: SW620/AD300, 72 h
KB-C2 = experiment: Cytotoxicity against human KB-C2 cells measured after 72 hrs by MTT assay; format: functional, cell-based; conditions: KB-C2, 72 h
KB 3-1 = experiment: Cytotoxicity against human KB 3-1 cells measured after 72 hrs by MTT assay; format: functional, cell-based; conditions: KB 3-1, 72 h
HEK293 [6] = experiment: Cytotoxicity against HEK293 cells transfected with pcDNA3.1 measured after 72 hrs by MTT assay; format: functional, cell-based; conditions: Homo sapiens, HEK293, 72 h
HEK293 [7] = experiment: Cytotoxicity against HEK293 cells harbouring ABCB1 measured after 72 hrs by MTT assay; format: functional, cell-based; conditions: Homo sapiens, HEK293, 72 h

| Structure (SMILES) | Ratio IC50 (SW620/AD300 [1]) | viability at 4 µM (SW620/AD300 [2]) | further results |
| --- | --- | --- | --- |
| O=c1c2c([nH]c3ncnn13)COC2 | 6.75 | 98% | – |
| Cc1cc(=O)n2nccc2[nH]1 | 2.81 | 93.9% | – |
| Cc1cc(=O)n2nc(SCc3ccccc3)nc2[nH]1 | 10.8 | 95% | – |
| Cc1cc(=O)n2nc(SCc3ccc([N+](=O)[O-])cc3)nc2[nH]1 | 7.08 | 93.2% | – |
| Cc1cc(=O)n2nc(SCc3ccc(C(F)(F)F)cc3)nc2[nH]1 | 4.08 | 97.6% | – |
| COc1ccc(CSc2nc3[nH]c(C)cc(=O)n3n2)cc1 | 33.49 | 93.6% | – |
| O=c1c2c([nH]c3ncnn13)CCCC2 | 6.45 | 94.7% | – |
| Cc1cc(=O)n2nc(SCC3CCCCC3)nc2[nH]1 | 6 | 92.6% | – |
| O=c1c2c([nH]c3nc(SCc4csc5ccc(Cl)cc45)nn13)CCC2 | 56.1 | 98.8% | – |
| Cc1cc(=O)n2c(C#N)c(C#N)nc2[nH]1 | 1.38 | 97.5% | – |
| Cc1cc(=O)n2nc(SCc3cccc4ccccc34)nc2[nH]1 | 24.27 | 97.8% | – |
| Cc1cc(=O)n2nc(SCc3nc4ccccc4[nH]3)nc2[nH]1 | 44.54 | 96.8% | – |
| Cc1cc(=O)n2nc(SCc3cc(=O)oc4c3ccc3ccccc34)nc2[nH]1 | 57.6 | 97.1% | – |
| Cc1cc(=O)n2ncnc2[nH]1 | 5.4 | 97.6% | – |
| Cc1[nH]c2ncnn2c(=O)c1C | 4.36 | 93.8% | – |
| O=c1c2c([nH]c3ncnn13)CCC2 | 13.94 | 96.2% | – |
| Cc1cc(=O)n2nc(SCc3ccc(Br)cc3)nc2[nH]1 | 10.29 | 94.9% | – |
| CC(=O)O[C@H]1C(=O)[C@@]2(C)[C@H]([C@H](OC(=O)c3ccccc3)[C@]3(O)C[C@H](OC(=O)[C@H](O)[C@@H](NC(=O)c4ccccc4)c4ccccc4)C(C)=C1C3(C)C)[C@]1(OC(C)=O)CO[C@@H]1C[C@@H]2O [PACLITAXEL] | – | – | IC50 (SW-620 [3]): 6.55 nM; Ratio IC50 (SW-620 [4]): 1.03; IC50 (SW620/AD300 [5]): 4320 nM; IC50 (KB-C2): 2090 nM; IC50 (KB 3-1): 4.32 nM; IC50 (HEK293 [6]): 2.08 nM; IC50 (HEK293 [7]): 106 nM |
| CC(C)c1cc(=O)n2ncnc2[nH]1 | 1.39 | 95.7% | – |
| O=c1cc(C2CC2)[nH]c2ncnn12 | 1.36 | 92.5% | – |

| Structure (SMILES) | Ratio IC50 (SW620/AD300 [1]) | viability at 4 µM (SW620/AD300 [2]) | further results |
| --- | --- | --- | --- |
| O=c1c2c([nH]c3nc(SCc4nc5ccccc5[nH]4)nn13)CCC2 | 69.68 | 94.7% | – |
| O=c1cc(C(F)F)[nH]c2ncnn12 | 1.06 | 92.4% | – |
| C#CCSc1nc2[nH]c(C)cc(=O)n2n1 | 4.6 | 97.2% | – |
| C#CCSc1nc2[nH]c3c(c(=O)n2n1)CCC3 | 24 | 96.9% | – |
| Cc1cc(=O)n2nc(SCc3csc4ccc(Cl)cc34)nc2[nH]1 | 18 | 94.6% | – |
| CCCCCc1c(C)[nH]c2ncnn2c1=O | 1 | 98.6% | – |
| COC(=O)c1nc2[nH]c(C)cc(=O)n2n1 | 4.5 | 97.9% | – |
| O=c1c2c([nH]c3nc(SCc4ccccc4)nn13)CCC2 | 25.41 | 94.7% | – |
| O=c1c2c([nH]c3ncnn13)CSC2 | 8 | 97.7% | – |
| O=c1c2c([nH]c3ncnn13)CCCCC2 | 3.57 | 95.3% | – |
| COC(=O)c1nc2[nH]c3c(c(=O)n2n1)CCC3 | 20.57 | 94.7% | – |
| Cc1cc(=O)n2nc(SCc3ccc(Cl)cc3)nc2[nH]1 | 13.94 | 94.5% | – |
| Cc1cc(=O)n2nc(SCc3nc4ccccc4s3)nc2[nH]1 | 60.85 | 97.2% | – |
| Cc1cc(=O)n2c(nc3ccccc32)[nH]1 | 1.09 | 96.2% | – |
| CCOC(=O)CCc1c(C)[nH]c2ncnn2c1=O | 1.03 | 94.2% | – |
| Cc1cc(=O)n2nc(SCc3ccc(Cl)c(F)c3)nc2[nH]1 | 18 | 97.6% | – |
| O=c1cc(-c2ccccc2)[nH]c2ncnn12 | 1.03 | 99% | – |
| CCc1cc(=O)n2ncnc2[nH]1 | 1.83 | 95.9% | – |
| Cc1cc(=O)n2nc(SCc3ccc(F)cc3)nc2[nH]1 | 14.9 | 99.4% | – |
